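Five compound concentrations were applied to cells in 96-well plates for 48 hours; endpoints were derived by simple linear interpolation of the resulting dose-response curve. Abbreviation: GI50, concentration required for 50% inhibition of growth.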 Calls of active or inactive are those of the source. No stated cut-off is given here; in the data, active = GI50 up to about 1.1 µM and inactive = higher.
Experiments:
Assay in all cases: NCI anticancer screen, dose series, 48 h
[1] = test system: T47D
[2] = test system: ACHN
[3] = test system: SF-539
[4] = test system: CCRF-CEM
[5] = test system: SF-295
[6] = test system: NCI-H226
[7] = test system: A549
[8] = test system: KM12
[9] = test system: TK-10
[10] = test system: HL-60
[11] = test system: HCC 2998
[12] = test system: OVCAR-8
[13] = test system: OVCAR-5
[14] = test system: UO-31
[15] = test system: MCF7
[16] = test system: OVCAR-3
[17] = test system: PC-3
[18] = test system: RXF 393
[19] = test system: COLO 205
[20] = test system: SNB-75
[21] = test system: SW-620
[22] = test system: SK-MEL-28
[23] = test system: K562
[24] = test system: 786-0
[25] = test system: M14
[26] = test system: A498
[27] = test system: Hs-578T
[28] = test system: MDA-N
[29] = test system: SF-268
[30] = test system: SNB-19
[31] = test system: UACC-62
[32] = test system: MDA-MB-231
[33] = test system: UACC-257
[34] = test system: NCI/ADR-RES
[35] = test system: NCI-H460
[36] = test system: RPMI-8226
[37] = test system: NCI-H522
[38] = test system: SK-MEL-2
[39] = test system: NCI-H23
[40] = test system: U-251
[41] = test system: SK-MEL-5
[42] = test system: CAKI-1
[43] = test system: IGROV-1
[44] = test system: HOP-62
[45] = test system: SN12C
[46] = test system: Malme-3M
[47] = test system: SK-OV-3
[48] = test system: MDA-MB-435
[49] = test system: MOLT-4
[50] = test system: OVCAR-4
[51] = test system: DU-145
[52] = test system: LOX IMVI
[53] = test system: BT-549
[54] = test system: HT-29
[55] = test system: HCT-116
[56] = test system: HCT-15
[57] = test system: EKVX
[58] = test system: HOP-92

Measured: GI50

Cc1cc2c(O)c(c1)CN(Cc1ccccc1)Cc1cc(C)cc(c1O)CN(Cc1ccccc1)Cc1cc(C)cc(c1O)CN(Cc1ccccc1)C2
> 100 µM: [56]
inactive: [1] > 100 µM | [2] > 100 µM | [3] > 100 µM | [4] > 100 µM | [5] > 100 µM | [6] > 100 µM | [7] > 100 µM | [8] > 100 µM | [9] > 100 µM | [10] > 100 µM | [11] > 100 µM | [12] > 100 µM | [13] > 100 µM | [14] > 100 µM | [15] > 100 µM | [16] > 100 µM | [17] > 100 µM | [18] 75.2 µM | [19] > 100 µM | [20] 50.8 µM | [21] > 100 µM | [22] > 100 µM | [23] > 100 µM | [24] > 100 µM | [25] > 100 µM | [26] > 100 µM | [27] > 100 µM | [28] > 100 µM | [29] > 100 µM | [30] > 100 µM | [31] > 100 µM | [32] > 100 µM | [33] > 100 µM | [34] > 100 µM | [35] > 100 µM | [36] > 100 µM | [37] > 100 µM | [38] 32.3 µM | [39] > 100 µM | [40] > 100 µM | [41] > 100 µM | [42] > 100 µM | [43] > 100 µM | [44] 46.2 µM | [45] > 100 µM | [46] > 100 µM | [47] > 100 µM | [48] > 100 µM | [49] > 100 µM | [50] > 100 µM | [51] > 100 µM | [52] > 100 µM | [53] > 100 µM | [54] > 100 µM | [55] > 100 µM

COc1cccc(/C=N/n2c(-c3ccccc3)n[nH]c2=O)c1
> 100 µM: [56]
inactive: [1] 27.5 µM | [2] > 100 µM | [3] 28.1 µM | [4] > 100 µM | [5] 21.2 µM | [6] 43.7 µM | [7] 91.2 µM | [8] 85.5 µM | [11] > 100 µM | [12] 29.8 µM | [13] > 100 µM | [14] > 100 µM | [15] 75.5 µM | [16] > 100 µM | [17] > 100 µM | [19] > 100 µM | [20] 34.3 µM | [21] > 100 µM | [22] > 100 µM | [23] > 100 µM | [57] > 100 µM | [24] 40.8 µM | [25] > 100 µM | [26] 24.4 µM | [27] 22.7 µM | [28] > 100 µM | [29] 17.5 µM | [30] 35.7 µM | [31] 72.4 µM | [32] 29.5 µM | [33] 42.6 µM | [34] 39.4 µM | [35] 42.2 µM | [36] > 100 µM | [38] 34.6 µM | [39] 27.3 µM | [40] 34.5 µM | [42] 53 µM | [44] 25.9 µM | [45] 87.7 µM | [46] > 100 µM | [47] 44.2 µM | [48] > 100 µM | [49] > 100 µM | [50] > 100 µM | [51] 49.5 µM | [53] 26.9 µM | [54] > 100 µM | [55] 28.2 µM

O=c1[nH]cnc2c1sc1nc3ccccc3n12
80.9 µM: [56]
inactive: [1] > 100 µM | [2] > 100 µM | [3] 61.9 µM | [4] 55.6 µM | [5] > 100 µM | [6] > 100 µM | [7] > 100 µM | [8] 5.96 µM | [9] 70 µM | [58] > 100 µM | [11] 73.3 µM | [12] > 100 µM | [13] > 100 µM | [14] 42.3 µM | [15] 76.4 µM | [16] > 100 µM | [17] 88.5 µM | [18] 16.3 µM | [19] > 100 µM | [20] 49.3 µM | [21] > 100 µM | [22] > 100 µM | [57] > 100 µM | [24] 67.5 µM | [25] > 100 µM | [26] 33.3 µM | [27] 51.6 µM | [28] > 100 µM | [29] > 100 µM | [30] > 100 µM | [31] 30.5 µM | [32] > 100 µM | [33] > 100 µM | [34] > 100 µM | [36] > 100 µM | [37] > 100 µM | [38] 55.8 µM | [39] > 100 µM | [40] > 100 µM | [41] > 100 µM | [42] > 100 µM | [43] 63.8 µM | [44] > 100 µM | [46] > 100 µM | [47] 58.1 µM | [48] > 100 µM | [49] 90.6 µM | [50] > 100 µM | [51] > 100 µM | [52] 27.8 µM | [53] > 100 µM | [54] > 100 µM | [55] 70.3 µM

Source: ChEMBL document CHEMBL1201862, “PubChem BioAssay data set” (2004)
